Data from article PMC8372460 (European Journal of Medicinal Chemistry, 2021).
Read-outs that look alike come from different tables or passages of the source.

Assays:
SARS-CoV-2 M^pro = SARS-CoV-2 M^pro (Severe acute respiratory syndrome coronavirus 2, UniProt P0DTD1); type: biochemical
[1] = concentrations ranging from 100 μg/mL to 10 ng/mL; cited from earlier work
[2] = tested on: normal peripheral blood mononuclear cells; details: cited from earlier work
latent HIV-1 = details: bcl-2-transduced primary CD4+ T cell model; cited from earlier work
[3] = tested on: Vesicular Stomatitis Virus; details: cited from earlier work
[4] = tested on: human normal fibroblast HFF-1 cells; assay: In vitro cytotoxicity evaluation, MTT assay; type: cell-based; details: read-out: IC50 values towards HFF-1 cells, 48 h
[5] = patients with hypoprothrombinemia, doses from 1 to 200 mg; cited from earlier work
[6] = Balb/C mice, 100 mg/kg, p.o., 10 times in 20 days
Vero E6 cells = details: under tested concentrations

In the case of `CC(C)=CC[C@@H](O)C1=CC(=O)c2c(O)ccc(O)c2C1=O` [Compound 1, shikonin, reference compound], the “inhibitory effect towards M^pro (in words)” value (SARS-CoV-2 M^pro; 10 μM) is listed as “moderate inhibitory effects” and the “cytotoxic effects in vitro” value [1] is listed as “significant cytotoxic effects”.
In the case of `O=C1C=CC(=O)c2c(O)cccc21` [Compound 2, juglone], the “IC50, cytotoxicity against normal peripheral blood mononuclear cells” value [2] is given as “more than 5 μg/mL”, the “inhibitory effect towards M^pro (in words)” value (SARS-CoV-2 M^pro; 1 μM) is given as “completely inactivated the main protease” and the “inhibitory effect towards M^pro (in words)” value (SARS-CoV-2 M^pro; 10 μM) is given as “completely loss of the hydrolytic efficacy”. The “reactivation of latent HIV-1” value (latent HIV-1) was “potently reactivate latent HIV-1”, the “activity against Vesicular Stomatitis Virus” value [3] was “active” and the IC50 [4] was less than 5 µM.
For `CC1=CC(=O)c2ccccc2C1=O` [Compound 3, 2-Methyl-1,4-naphthoquinone, reference compound], the “toxic effects in patients” value [5] is given as “no toxic effects were observed” and the “inhibitory effect towards M^pro (in words)” value (SARS-CoV-2 M^pro; 10 μM) is given as “inactive”.
With `O=C1C=C(O)C(=O)c2ccccc21` [Compound 7, 2-hydroxy-1,4-naphthoquione] the “inhibitory effect towards M^pro (in words)” value (SARS-CoV-2 M^pro; 10 μM) was “did not exhibit any detectable inhibition”.
With `COc1cccc2c1C(=O)C(C(C)=O)=CC2=O` [Compound 15, 2-acetyl-8-methoxy-1,4-naphthoquinone] the animal deaths [6] was “no animal deaths”, the “body weight change compared with control animals” value [6] was “minor body weight loss” and the “toxicity symptoms (reduced activity, hypothermia, body shivering)” value ([6]; every other day) was “did not show any obvious toxicity symptoms”. For the same molecule, the “toxicity towards host Vero E6 cells (in words)” value (Vero E6 cells) was “non-toxic”.
For `Cc1cc(O)c2c(c1)C(=O)C=CC2=O` [Compound 16, 7-Methyl juglone], the “Mpro inhibition rate at different conc. (%) 0.1 μM” value (SARS-CoV-2 M^pro) was 21.7%, the “Mpro inhibition rate at different conc. (%) 1 μM” value (SARS-CoV-2 M^pro) was 99.6% and the “inhibitory effect towards M^pro (in words)” value (SARS-CoV-2 M^pro) was “completely loss of the hydrolytic efficacy”. It also gave an IC50 [4] of less than 5 µM.
In the case of `CC1=CC(=O)c2c(O)cccc2C1=O` [Compound 17, Plumbagin], the “inhibitory effect towards M^pro (in words)” value (SARS-CoV-2 M^pro; 10 μM) is reported as “inactive”.
In the case of `COc1cc(C)cc2c1C(=O)C=CC2=O` [Compound 22, 7-methyl juglone methyl ether], the “inhibitory effect towards M^pro (in words)” value (SARS-CoV-2 M^pro) is reported as “did not show any inhibitory effects”.
